Assay results taken from patent US20110318431A1, “Pharmaceutical Compositions and Methods of Treating Neurological Insults” (ENDOGENX, priority 2008, published 2011).
Entries after “also recorded” stand apart in the source; their conditions may differ. Read-outs that look alike come from different tables or passages of the source.

Tests used:
[1] = cited from earlier work
[2] = 16 mmol bolus and 65 mmol continuous infusion over 24 hrs; cited from earlier work
[3] = Evaluation of therapy for side effects of magnesium sulfate with and without mannitol treatment
Protocol: Safety—safety of subjects was maintained at all times. Adverse events and clinical laboratory data were obtained. Serious and non-serious adverse effects and clinical laboratory data were compared between groups.
Group 1. Magnesium sulfate 16 gm a day (4 vials each of 1 gm of magnesium sulfate mixed with 100 ml normal saline was infused 6 hourly for five days)
Group 3. Magnesium sulfate 8 gm a day plus mannitol (2 vials each of 1 gm of magnesium sulfate mixed with 50 ml normal saline was infused 6 hourly for five days; in addition 100 ml of 20% mannitol once a day with first dose of magnesium sulfate was administered)
Evaluation of therapy for side effects of magnesium sulfate with and without mannitol treatment

[4] = Clinical study in patients with infarct: Glasgow outcome scale, Barthel Index, Modified Rankin Score; format: in vivo, human
[5] = cited from earlier work; remark: listed apart in the source
[6] = cited from earlier work; remark: listed apart in the source
[7] = magnesium therapy; cited from earlier work
[8] = after one month of follow up; loading dose 16 mM then 6 mM/hour for 5 days IV; cited from earlier work
[9] = pediatric TBI patients; 50 mg/kg IV then 8.3 mg/kg/hour for 24 hours; cited from earlier work
[10] = cited from earlier work; remark: listed apart in the source
[11] = cited from earlier work; remark: listed apart in the source
[12] = at the end of three months; 4 g IV and 10 g IM within 12 hours of injury, then 5 g IM every 4 hours for 24 hours; cited from earlier work
[13] = 283 patients with aneurysmal subarachnoid hemorrhage; cited from earlier work
[14] = cited from earlier work; remark: listed apart in the source
[15] = end of 24 hour infusion, cited from earlier work
[16] = number out of total 15 patients, magnesium sulfate 16 gm a day, five days

O=S(=O)([O-])[O-].[Mg+2] [magnesium sulfate]
Patients with good functional outcome ([1]; at 3 months): 60%
Patient status on hospital arrival rated improved ([1]; rated by paramedics, 10 mmol bolus and 64 mmol infusion over 24 hrs): 20%
Patient status on hospital arrival rated unchanged ([1]; rated by paramedics): 75%
Patient status on hospital arrival rated worsened ([1]; rated by paramedics): 5%
Mortality versus placebo [2]: slightly higher
Primary outcome [2]: not improved
Incidence of side effects, magnesium sulfate (16 gm) alone compared to magnesium sulfate (8 gm) plus mannitol ([3]; five days treatment): greater; also recorded: higher
Constipation [3, 16]: 4
Facial flushing [3, 16]: 8
Heart block [3, 16]: 3
Hypotension [3, 16]: 3
Nausea [3, 16]: 5
Paradoxical bradycardia [3, 16]: 3
Respiratory distress [3, 16]: 2
Patient outcome, magnesium sulfate (16 gm) group compared to mannitol group ([4]; magnesium sulfate 16 gm a day for five days): improved
Effectiveness of magnesium sulfate (16 gm) versus magnesium sulfate (8 gm) plus mannitol ([4]; patients with cerebrovascular accidents): equally effective

OC[C@@H](O)[C@@H](O)[C@H](O)[C@H](O)CO [mannitol, D-mannitol]
Mortality with acute renal failure ([5]; massive mannitol infusion to 4 male adults): 2/4
Onset of acute renal failure after infusion ([5]; massive mannitol infusion, Mean+SD): 48 ± 22 h
Half life ([6]; humans with normal renal function): 1.2 h
Osmolal gap corresponding to renal toxicity ([6]; humans): > 55 mosm/kg of water
Serum mannitol concentration at which renal toxicity / acute renal failure occurs ([6]; humans): > 1000 mg/dL
Half life ([6]; uremia patients): 36 h
Effectiveness of mannitol compared to control ([4]; 100 ml 20% mannitol once a day for five days): not effective compared to control
Glasgow outcome scale (GOS), Barthel Index (BI) and Modified Rankin Score (MRS), mannitol group versus control group ([4]; 100 ml 20% mannitol once a day for five days, day 1, day 5, day 15, day 30): similar
Barthel Index (BI) and Modified Rankin Score (MRS), mannitol group compared to magnesium sulfate (8 gm) plus mannitol group ([4]; day 5, day 15, day 30): significantly higher
Barthel Index (BI) and Modified Rankin Score (MRS), mannitol group compared to magnesium sulfate (16 gm) group ([4]; day 5, day 15, day 30): significantly higher
Glasgow outcome scale (GOS), mannitol group compared to magnesium sulfate (8 gm) plus mannitol group ([4]; day 5, day 15, day 30): significantly lower
Glasgow outcome scale (GOS), mannitol group compared to magnesium sulfate (16 gm) group ([4]; day 5, day 15, day 30): significantly lower

[Mg] [magnesium]
Outcome at six months [7]: failed to provide a favorable outcome
Patient outcome, outcome scales (Orgogozo, Mathew, Rankin) [8]: significant positive effect
Adverse hemodynamic effects [9]: No adverse hemodynamic effects were observed
Composite primary outcome at 6 months post-injury ([10]; administration within 8 hours of moderate to severe TBI for 5 days, continuous infusion): did not show any beneficial effects
Mortality ([10]; high dose of magnesium): Significantly higher mortality
Composite score versus placebo ([10]; lower dose of magnesium): worse than the placebo treated patients
Serum magnesium level ([11]; over 24 hours, 8 mmol over 15 minutes followed by 65 mmol over 24 hours IV, rose from 0.76 mM/L): 1.42 mM/L
Blood pressure or adverse events versus placebo-treated patients ([11]; stroke patients): No differences
Patients with favorable outcome including reduced mortality and intra-operative brain swelling [12]: 73%
Delayed cerebral ischemia and subsequent poor outcome [13]: reduced
Target serum concentrations achieved ([14]; 16 mmol loading infusion): 1.49 mmol/L
Effects on heart rate, blood pressure, or blood glucose ([14]; loading dose 8, 12 or 16 mM followed by 65 mM infusion over 24 hours): no obvious effects
CSF ionized magnesium increase relative to baseline [15]: 11%
CSF total magnesium increase relative to baseline [15]: 15%
Serum magnesium concentrations relative to baseline ([15]; dose adjusted to serum 2.1-2.5 mM/L): doubled from baseline
